Here are results for 31 molecules from US8202513B2, “Aryl potassium channel blockers and uses thereof” (Bionomics Limited, priority 2007, dated 2012).

In general, pEC50 refers to the EC50 on a negative log10 scale, so that one unit is a factor of ten.

pEC50: −log10 of the molar value.

The experiment deals with T1, human Kv1.3 ion channel (Homo sapiens, UniProt P22001).
T1 construct: Human Jurkat cells (which endogenously express hKv1.3) or Chinese Hamster Ovary (CHO) cells stably transfected with hKv1.3 were used; endogenous in cells; host or cells: Human Jurkat cells (endogenous) or CHO cells stably transfected with hKv1.3
T1 sequence (P22001 whole entry): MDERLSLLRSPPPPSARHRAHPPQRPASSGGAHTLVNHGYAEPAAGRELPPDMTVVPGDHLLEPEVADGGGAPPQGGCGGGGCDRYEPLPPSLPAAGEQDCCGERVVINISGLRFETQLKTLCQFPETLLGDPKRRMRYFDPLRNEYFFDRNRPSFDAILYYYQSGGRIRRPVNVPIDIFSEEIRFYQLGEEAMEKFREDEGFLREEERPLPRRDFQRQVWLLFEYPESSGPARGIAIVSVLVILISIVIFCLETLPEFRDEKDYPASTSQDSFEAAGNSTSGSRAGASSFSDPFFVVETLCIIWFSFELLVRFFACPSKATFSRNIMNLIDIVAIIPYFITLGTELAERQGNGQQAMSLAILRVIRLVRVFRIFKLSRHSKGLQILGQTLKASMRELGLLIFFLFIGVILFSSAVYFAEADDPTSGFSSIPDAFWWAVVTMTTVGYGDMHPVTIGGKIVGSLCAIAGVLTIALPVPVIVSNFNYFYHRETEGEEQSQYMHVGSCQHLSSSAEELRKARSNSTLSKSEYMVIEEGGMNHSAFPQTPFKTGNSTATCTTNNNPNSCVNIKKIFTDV
The experiment is described as follows: Inhibition of Kv1.3 currents, planar patch clamp. It is filed as cell-based. The note with it: Human Jurkat cells or CHO cells stably transfected with hKv1.3; averaged dose response data from 3 or more cells. The method, then:
Potency of compounds to inhibit the human Kv1.3 ion channel was determined as follows:
EC50 values for inhibition of Kv1.3 currents were determined by the method according to Schmitz et al (2005) Molecular Pharmacology 68, 1254-1270 with the following differences: • 1. Human Jurkat cells (which endogenously express hKv1.3) or Chinese Hamster Ovary (CHO) cells stably transfected with hKv1.3 were used in place of transfected rat L929 cells. • 2. All electrophysiology was performed using planar patch clamp (Port-A-Patch, Nanion Technologies Gmbh, Munich) in contrast to conventional patch clamp. • 3. EC50 values shown were determined from averaged dose response data obtained from 3 or more cells.
For orientation: Patch clamp records ionic current or voltage across a cell membrane.
The molecule `COc1c(Cl)c(C)c(C(C)=O)c(OCCN2CCOCC2)c1OCCCc1ccc(F)cc1` [Example 1f, 1-(3-Chloro-5-(3-(4-fluorophenyl)propoxy)-4-methoxy-2-methyl-6-(2-morpholinoethoxy)phenyl)ethanone] had a negative logarithm of the EC50 (pEC50) of 6.82 to 7.30.

Take `COc1c(Cl)c(C)c(C(C)=O)c(OCCNC2CCCC2)c1OCCCc1ccc(F)cc1` [Example 2, 1-(3-Chloro-6-(cyclopentylamino)ethoxy)-5-(3-(4-fluorophenyl)propoxy-4-methoxy-2-methylphenyl)ethanone]: the pEC50 is over 7.30.

`COc1c(C)c(C)c(C(C)=O)c(OCCN2CCOCC2)c1OCCCc1ccc(F)cc1` [Example 3c, 1-[3-[3-(4-Fluoro-phenyl)-propoxy]-4-methoxy-5,6-dimethyl-2-(2-morpholin-4-yl-ethoxy)-phenyl]-ethanone] gave a pEC50 of 6.82 to 7.30.

For the molecule `COc1c(C)c(C)c(C(C)=O)c(OCCc2ccccn2)c1OCCC(C)c1ccc(F)cc1` (stereo not shown) [Example 4f, 1-[3-[3-(4-Fluoro-phenyl)-butoxy]-4-methoxy-5,6-dimethyl-2-(2-pyridin-2-yl-ethoxy)-phenyl]-ethanone], the pEC50 was over 7.30.

For the molecule `COc1c(C)c(C)c(C(C)=O)c(OCCN2CCOCC2)c1OCCC(C)c1ccc(F)cc1` (stereo not shown) [Example 5, 1-[3-[3-(4-Fluoro-phenyl)-butoxy]-4-methoxy-5,6-dimethyl-2-(2-morpholin-4-yl-ethoxy)-phenyl]-ethanone], the pEC50 was over 7.30.

`COc1c(C)c(C)c(C(C)=O)c(OCCNC2CCCC2)c1OCCC(C)c1ccc(F)cc1` (stereo not shown) [Example 6, 1-{2-(2-Cyclopentylamino-ethoxy)-3-[3-(4-fluoro-phenyl)-butoxy]-4-methoxy-5,6-dimethyl-phenyl}-ethanone] showed a pEC50 of over 7.30.

`COc1c(Cl)c(C)c(C(C)=O)c(OCCNC2CCCC2)c1OCCC(C)c1ccc(F)cc1` (stereo not shown) [Example 9, 1-[3-Chloro-6-(2-cyclopentylamino-ethoxy)-5-[3-(4-fluoro-phenyl)-butoxy]-4-methoxy-2-methyl-phenyl]-ethanone] gave a pEC50 of 6.82 to 7.30.

`COc1c(Cl)c(C)c(C(C)=O)c(OCCN2CCCCC2)c1OCCC(C)c1ccc(F)cc1` (stereo not shown) [Example 10, 1-[3-Chloro-5-[3-(4-fluoro-phenyl)-butoxy]-4-methoxy-2-methyl-6-(2-piperidin-1-yl-ethoxy)-phenyl]-ethanone] gave a pEC50 of over 7.30.

As for `COc1c(Cl)c(C)c(C(C)=O)c(OCCN2CCC(F)CC2)c1OCCC(C)c1ccc(F)cc1` (stereo not shown) [Example 11, 1-{3-Chloro-5-[3-(4-fluoro-phenyl)-butoxy]-6-[2-(4-fluoro-piperidin-1-yl)-ethoxy]-4-methoxy-2-methyl-phenyl}-ethanone], the pEC50 is 6.82 to 7.30.

`COc1c(Cl)c(C)c(C(C)=O)c(OCCN2CC[C@@H](F)C2)c1OCCC(C)c1ccc(F)cc1` (stereo partly shown) [Example 12, 1-{3-Chloro-5-[3-(4-fluoro-phenyl)-butoxy]-6-[2-(R-3-fluoro-pyrrolidin-1-yl)-ethoxy]-4-methoxy-2-methyl-phenyl}-ethanone] had a pEC50 of over 7.30.

In turn, `COc1c(Cl)c(C)c(C(C)=O)c(OCc2ccccn2)c1OCCC(C)c1ccc(F)cc1` (stereo not shown) [Example 13, 1-[3-Chloro-5-[3-(4-fluoro-phenyl)-butoxy]-4-methoxy-2-methyl-6-(pyridin-2-ylmethoxy)-phenyl]-ethanone] showed a pEC50 of 6.52 to 6.82.

In turn, `COc1c(Cl)c(C)c(C(C)=O)c(OCCN2CCC(O)CC2)c1OCCC(C)c1ccc(F)cc1` (stereo not shown) [Example 14, 1-{3-Chloro-5-[3-(4-fluoro-phenyl)-butoxy]-6-[2-(4-hydroxy-piperidin-1-yl)-ethoxy]-4-methoxy-2-methyl-phenyl}-ethanone] gave a pEC50 of 6.82 to 7.30.

The molecule `COc1c(Cl)c(C)c(C(C)=O)c(OCCN2CCC(=O)CC2)c1OCCC(C)c1ccc(F)cc1` (stereo not shown) [Example 15, 1-{3-Chloro-5-[3-(4-fluoro-phenyl)-butoxy]-6-[2-(4-oxo-piperidin-1-yl)-ethoxy]-4-methoxy-2-methyl-phenyl}-ethanone] gave a pEC50 of over 7.30.

Turning to `COc1c(Cl)c(C)c(C(C)=O)c(OCCN2CCC(F)(F)CC2)c1OCCC(C)c1ccc(F)cc1` (stereo not shown) [Example 16, 1-{3-Chloro-6-[2-(4,4-difluoro-piperidin-1-yl)-ethoxy]-5-[3-(4-fluoro-phenyl)-butoxy]-4-methoxy-2-methyl-phenyl}-ethanone], the pEC50 is 6.82 to 7.30.

Molecule `COc1c(Cl)c(C)c(C(C)=O)c(OCCN2CCCC(F)(F)C2)c1OCCC(C)c1ccc(F)cc1` (stereo not shown) [Example 17, 1-{3-Chloro-6-[2-(3,3-difluoro-piperidin-1-yl)-ethoxy]-5-[3-(4-fluoro-phenyl)-butoxy]-4-methoxy-2-methyl-phenyl}-ethanone] gave a pEC50 of over 7.30.

Take `COc1c(Cl)c(C)c(C(C)=O)c(OCCOc2cnccn2)c1OCCC(C)c1ccc(F)cc1` (stereo not shown) [Example 18b, 1-{3-Chloro-5-[3-(4-fluoro-phenyl)-butoxy]-4-methoxy-2-methyl-6-[2-(pyrazin-2-yloxy)-ethoxy]-phenyl}-ethanone]: the pEC50 was over 7.30.

The molecule `COc1c(Cl)c(C)c(C(C)=O)c(OCCn2cncn2)c1OCCC(C)c1ccc(F)cc1` (stereo not shown) [Example 19, 1-[3-Chloro-5-[3-(4-fluorophenyl)-butoxy]-4-methoxy-2-methyl-6-(2-[1,2,4]-triazol-1-yl-ethoxy)-phenyl]-ethanone] gave a negative logarithm of the EC50 (pEC50) of 6.82 to 7.30.

`COc1c(Cl)c(C)c(C(C)=O)c(OCCN2CC(F)(F)C2)c1OCCC(C)c1ccc(F)cc1` (stereo not shown) [Example 20, 1-{3-Chloro-6-[2-(3,3-difluoro-azetidin-1-yl)-ethoxy]-5-[3-(4-fluoro-phenyl)-butoxy]-4-methoxy-2-methyl-phenyl}-ethanone]: the pEC50 is 6.82 to 7.30.

For the molecule `COc1c(Cl)c(C)c(C(C)=O)c(OCCCN2CCOCC2)c1OCCC(C)c1ccc(F)cc1` (stereo not shown) [Example 22b, 1-[3-Chloro-5-[3-(4-fluoro-phenyl)-butoxy]-4-methoxy-2-methyl-6-(3-morpholin-4-yl-propoxy)-phenyl]-ethanone], the pEC50 is over 7.30.

As to `COc1c(Cl)c(C)c(C(C)=O)c(OCCCN2CCS(=O)(=O)CC2)c1OCCC(C)c1ccc(F)cc1` (stereo not shown) [Example 23, 1-{3-Chloro-6-[3-(1,1-dioxo-thiomorpholin-4-yl)-propoxy]-5-[3-(4-fluoro-phenyl)-butoxy]-4-methoxy-2-methyl-phenyl}-ethanone], the negative logarithm of the EC50 (pEC50) was over 7.30.

For the molecule `COc1c(Cl)c(C)c(C(C)=O)c(OCCCN2CC[S+]([O-])CC2)c1OCCC(C)c1ccc(F)cc1` (stereo not shown) [Example 24, 1-{3-Chloro-5-[3-(4-fluoro-phenyl)-butoxy]-4-methoxy-2-methyl-6-[3-(1-oxo-thiomorpholin-4-yl)-propoxy]-phenyl}-ethanone], the pEC50 was 6.82 to 7.30.

On to `COc1c(Cl)c(C)c(C(C)=O)c(OCCN2CCOCC2)c1CCCCc1ccccc1` [Example 26b, 1-(3-Chloro-4-methoxy-2-methyl-6-(2-morpholinoethoxy)-5-5(4-phenylbutyl)phenyl)ethanone], for which the pEC50 is over 7.30.

In turn, `COc1c(Cl)c(C)c(C(C)=O)c(OCCc2ccccn2)c1CCCCc1ccccc1` [Example 27, 1-(3-Chloro-4-methoxy-2-methyl-5-(4-phenylbutyl)-6-(2-(pyridine-2-yl)ethoxy)phenyl)ethanone] gave a pEC50 of over 7.30.

`COc1c(Cl)c(C)c(C(C)=O)c(OCCN2CCOCC2)c1CCCC(C)c1ccc(F)cc1` (stereo not shown) [Example 31b, 1-(3-Chloro-5-(4-(4-fluorophenyl)pentyl)-4-methoxy-2-methyl-6-(2-morpholinoethoxy)phenyl)ethanone] gave a negative logarithm of the EC50 (pEC50) of 6.82 to 7.30.

Molecule `COc1c(Cl)c(C)c(C(C)=O)c(OCCc2ccccn2)c1CCCC(C)c1ccc(F)cc1` (stereo not shown) [Example 32, 1-[3-Chloro-5-[4-(4-fluoro-phenyl)-pentyl]-4-methoxy-2-methyl-6-(2-pyridin-2-yl-ethoxy)-phenyl]-ethanone] gave a pEC50 of over 7.30.

For the molecule `COc1cc(C)c(C(C)=O)c(O)c1OCCCc1ccccc1` [Example 33a, 1-(3-(3-(phenyl)propoxy)-2-hydroxy-4-methoxy-6-methylphenyl)ethanone, reference compound], the pEC50 was under 6.52.

In turn, `COc1cc(C)c(C(C)=O)c(OCCN2CCOCC2)c1OCCCc1ccccc1` [Example 33b, 1-[4-Methoxy-6-methyl-2-(2-morpholin-4-yl-ethoxy)-3-(3-phenyl-propoxy)-phenyl]-ethanone] gave a pEC50 of 6.52 to 6.82.

`COc1c(Cl)c(C)c(C(C)=O)c(OCCNC2CCCC2)c1OCCCc1ccccc1` [Example 34c, 1-[3-Chloro-6-(2-cyclopentylamino-ethoxy)-4-methoxy-2-methyl-5-(3-phenyl-propoxy)-phenyl]-ethanone]: the pEC50 is 6.82 to 7.30.

Molecule `COc1c(Cl)c(C)c(C(C)=O)c(OCCN2CC(F)(F)C2)c1OCCCc1ccccc1` [Example 35, 1-[3-Chloro-6-[2-(3,3-difluoro-azetidin-1-yl)-ethoxy]-4-methoxy-2-methyl-5-(3-phenyl-propoxy)-phenyl]-ethanone] had a pEC50 of under 6.52.

Take `COc1c(Cl)c(C)c(C(C)=O)c(OCCN2CCSCC2)c1OCCCc1ccccc1` [Example 36, 1-[3-Chloro-4-methoxy-2-methyl-5-(3-phenyl-propoxy)-6-(2-thiomorpholin-4-yl-ethoxy)-phenyl]-ethanone]: the pEC50 was 6.82 to 7.30.

For `COc1c(Cl)c(C)c(C(C)=O)c(OCCN2CCC(F)(F)C2)c1OCCCc1ccccc1` [Example 37, 1-[3-Chloro-6-[2-(3,3-difluoro-pyrrolidin-1-yl)-ethoxy]-4-methoxy-2-methyl-5-(3-phenyl-propoxy)-phenyl]-ethanone], the pEC50 is 6.52 to 6.82.
